Assay results taken from patent US20210070748A1, “INHIBITORS OF BRUTONS TYROSINE KINASE” (Pharmacyclics LLC, priority 2015, published 2021).
Like-named read-outs stand apart in the source and are kept apart here.

Experiments:
Type in all cases: biochemical
[1] = target: T1, BTK-WT (Homo sapiens, UniProt Q06187); experiment: Btk in vitro inhibitory activity (one of Method A TR-FRET, Method B electrophoretic mobility shift, Method C radiometric filter binding); conditions: read-out: BTK-WT (IC50)
T1 construct: purified from insect cells as a full-length construct containing an N-terminal 6X-His tag; His6 (N); made in house; host or cells: insect cells (baculovirus Sf21 in Method B)
T1 sequence (Q06187 whole entry): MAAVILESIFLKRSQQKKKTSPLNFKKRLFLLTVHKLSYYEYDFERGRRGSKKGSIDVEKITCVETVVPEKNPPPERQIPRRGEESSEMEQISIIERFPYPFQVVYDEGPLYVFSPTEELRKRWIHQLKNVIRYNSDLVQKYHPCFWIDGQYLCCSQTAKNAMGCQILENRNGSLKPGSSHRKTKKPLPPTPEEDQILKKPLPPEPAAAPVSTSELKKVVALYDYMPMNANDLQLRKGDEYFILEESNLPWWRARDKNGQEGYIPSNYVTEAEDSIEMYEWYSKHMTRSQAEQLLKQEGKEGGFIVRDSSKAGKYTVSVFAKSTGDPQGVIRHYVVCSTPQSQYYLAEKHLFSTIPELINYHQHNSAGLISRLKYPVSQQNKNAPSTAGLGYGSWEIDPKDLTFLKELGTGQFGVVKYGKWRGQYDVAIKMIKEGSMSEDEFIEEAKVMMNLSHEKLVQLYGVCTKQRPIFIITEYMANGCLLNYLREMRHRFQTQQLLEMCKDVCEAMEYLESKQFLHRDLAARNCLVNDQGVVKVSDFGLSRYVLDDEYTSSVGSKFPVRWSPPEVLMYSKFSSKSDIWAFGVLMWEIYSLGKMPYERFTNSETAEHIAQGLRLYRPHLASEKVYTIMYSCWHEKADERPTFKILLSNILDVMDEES

[2] = target: T2, JAK3 (Homo sapiens, UniProt P52333); experiment: Inhibition of a panel of kinases, in vitro HotSpot kinase assay: JAK3; conditions: 1 μM ATP, read-out: JAK3 (IC50)
T2 sequence (P52333 1-1124): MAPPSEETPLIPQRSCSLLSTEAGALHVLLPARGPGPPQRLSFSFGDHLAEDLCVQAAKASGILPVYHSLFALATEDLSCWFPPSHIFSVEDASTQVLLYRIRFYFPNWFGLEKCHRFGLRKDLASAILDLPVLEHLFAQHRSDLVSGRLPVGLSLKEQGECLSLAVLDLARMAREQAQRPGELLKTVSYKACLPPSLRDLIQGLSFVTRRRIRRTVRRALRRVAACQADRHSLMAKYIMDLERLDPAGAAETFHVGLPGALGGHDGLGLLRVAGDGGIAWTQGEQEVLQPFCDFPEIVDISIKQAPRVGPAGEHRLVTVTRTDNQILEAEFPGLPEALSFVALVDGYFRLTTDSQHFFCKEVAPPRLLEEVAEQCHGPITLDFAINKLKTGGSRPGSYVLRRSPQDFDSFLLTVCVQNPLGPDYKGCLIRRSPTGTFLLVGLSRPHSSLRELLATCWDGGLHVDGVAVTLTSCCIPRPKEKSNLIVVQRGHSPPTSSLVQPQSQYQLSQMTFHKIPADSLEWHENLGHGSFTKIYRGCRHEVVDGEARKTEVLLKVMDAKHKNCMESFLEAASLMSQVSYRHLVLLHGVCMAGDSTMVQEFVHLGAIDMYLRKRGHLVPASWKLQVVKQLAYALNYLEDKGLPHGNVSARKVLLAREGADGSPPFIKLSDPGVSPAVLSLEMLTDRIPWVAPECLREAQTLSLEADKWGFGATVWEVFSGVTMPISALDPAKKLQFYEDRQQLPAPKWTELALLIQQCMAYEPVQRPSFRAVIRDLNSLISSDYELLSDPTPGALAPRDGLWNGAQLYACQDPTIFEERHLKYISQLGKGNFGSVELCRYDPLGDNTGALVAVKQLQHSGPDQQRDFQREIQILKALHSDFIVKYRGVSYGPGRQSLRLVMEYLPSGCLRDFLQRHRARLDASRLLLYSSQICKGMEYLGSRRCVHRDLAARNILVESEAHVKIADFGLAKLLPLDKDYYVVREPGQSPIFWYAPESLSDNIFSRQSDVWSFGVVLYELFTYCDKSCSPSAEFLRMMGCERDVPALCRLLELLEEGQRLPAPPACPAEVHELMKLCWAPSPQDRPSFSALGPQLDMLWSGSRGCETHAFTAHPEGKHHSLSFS

[3] = target: LCK (Homo sapiens, UniProt P06239); experiment: Inhibition of a panel of kinases, in vitro HotSpot kinase assay: LCK; conditions: 1 μM ATP, read-out: LCK (IC50)
LCK, sequence (P06239 whole entry): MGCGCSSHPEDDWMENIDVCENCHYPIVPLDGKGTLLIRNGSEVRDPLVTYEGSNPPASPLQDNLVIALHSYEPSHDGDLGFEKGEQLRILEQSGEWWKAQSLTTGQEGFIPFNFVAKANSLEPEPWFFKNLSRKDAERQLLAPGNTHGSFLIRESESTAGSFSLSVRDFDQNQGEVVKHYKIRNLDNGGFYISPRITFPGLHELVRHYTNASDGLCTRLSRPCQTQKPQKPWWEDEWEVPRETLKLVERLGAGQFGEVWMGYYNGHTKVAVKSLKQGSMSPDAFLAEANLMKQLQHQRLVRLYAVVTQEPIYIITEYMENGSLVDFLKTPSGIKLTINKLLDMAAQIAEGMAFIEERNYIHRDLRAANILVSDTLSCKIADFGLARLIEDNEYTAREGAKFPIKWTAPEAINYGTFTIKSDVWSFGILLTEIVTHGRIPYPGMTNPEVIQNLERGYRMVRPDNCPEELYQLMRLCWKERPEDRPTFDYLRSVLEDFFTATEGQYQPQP

| Compound | IC50 ([1]; Table 10, Formula A-I) [nM] | IC50 ([2]; Table 10, Formula A-I) [nM] | IC50 ([3]; Table 10, Formula A-I) [nM] | IC50 ([1]; Table 11, Formula B-I) [nM] | IC50 ([2]; Table 11, Formula B-I) [nM] | IC50 ([3]; Table 11, Formula B-I) [nM] |
| --- | --- | --- | --- | --- | --- | --- |
| Cc1cc(Nc2nc(N3CC[C@@H](NC(=O)N(C)C)C3)cnc2C(N)=O)sn1 [Example A-51, 5-[(3R)-3-[(dimethylcarbamoyl)amino]pyrrolidin-1-yl]-3-[(3-methyl-1,2-thiazol-5-yl)amino]pyrazine-2-carboxamide] | 1000 to 10000 | > 10000 | > 10000 |  |  |  |
| C[C@H]1[C@@H](NC(=O)N(C)C)CCCN1c1cnc(C(N)=O)c(Nc2ccc3ncccc3c2)n1 [Example A-60, 5-[(2S,3S)-3-[(dimethylcarbamoyl)amino]-2-methylpiperidin-1-yl]-3-[(quinolin-6-yl)amino]pyrazine-2-carboxamide] | 100 to 1000 | 1000 to 10000 | > 10000 |  |  |  |
| Cc1cc(Nc2cc(N3CCC[C@@H](NC(=O)c4ccccc4)C3)cnc2C(N)=O)sn1 [Example A-61, 5-[(3R)-3-benzamidopiperidin-1-yl]-3-[(3-methyl-1,2-thiazol-5-yl)amino]pyridine-2-carboxamide] | 100 to 1000 | 1000 to 10000 | 100 to 1000 |  |  |  |
| Cc1cc(Nc2cc(N3CCC[C@@H](NC(=O)N(C)C)C3)cnc2C(N)=O)sn1 [Example A-64, 5-[(3R)-3-[(dimethylcarbamoyl)amino]piperidin-1-yl]-3-[(3-methyl-1,2-thiazol-5-yl)amino]pyridine-2-carboxamide] | 100 to 1000 | 1000 to 10000 | > 10000 |  |  |  |
| Cc1cc(Nc2nc(N[C@H]3CC[C@H](NC(=O)c4ccc(N(C)C)cc4)CC3)cnc2C(N)=O)sn1 [Example B-1, 3-[(3-methyl-1,2-thiazol-5-yl)amino]-5-{[(1r,4r)-4-[4-(dimethylamino)benzamido]cyclohexyl]amino}pyrazine-2-carboxamide] |  |  |  | ≤ 100 | 100 to 1000 | < 100 |
| Cc1cc(Nc2nc(NC3CCC(NC(=O)c4ccc(N(C)C)cc4)CC3)cnc2C(N)=O)sn1 (stereo not drawn) [Example B-5, 5-({4-[4-(dimethylamino)benzamido]cyclohexyl}amino)-3-[(3-methyl-1,2-thiazol-5-yl)amino]pyrazine-2-carboxamide] |  |  |  | ≤ 100 | < 100 | 100 to 1000 |
| CN1CCN(C(=O)c2ccc(Nc3nc(NC4CCC(NC(=O)N(C)C)CC4)cnc3C(N)=O)cc2)CC1 (stereo not drawn) [Example B-13, 5-(4-(3,3-dimethylureido)cyclo-hexylamino)-3-(4-(4-methylpiperazine-1-carbonyl)phenylamino) pyrazine-2-carboxamide] |  |  |  | ≤ 100 | 100 to 1000 | < 100 |
| CN1CCN(C(=O)c2ccc(Nc3nc(N[C@H]4CC[C@H](NC(=O)c5ccc(C6CC6)cc5F)CC4)cnc3C(N)=O)cc2)CC1 [Example B-14, 5-((1r,4r)-4-(4-cyclo-propyl-2-fluoro-benzamido)cyclohexyl-amino)-3-(4-(4-methylpiperazine-1-carbonyl)phenylamino) pyrazine-2-carboxamide] |  |  |  | ≤ 100 | 100 to 1000 | 100 to 1000 |
| CN1CCN(C(=O)c2ccc(Nc3nc(NC4CCC(NC(=O)c5ccc(C6CC6)cc5F)CC4)cnc3C(N)=O)cc2)CC1 (stereo not drawn) [Example B-15, 5-(4-(4-cyclopropyl-2-fluoro-benzamido)cyclohexyl-amino)-3-(4-(4-methylpiperazine-1-carbonyl)phenylamino) pyrazine-2-carboxamide] |  |  |  | ≤ 100 | < 100 | < 100 |

Now from value to compound:

| IC50 ([1]; Table 10, Formula A-I) [nM] | IC50 ([2]; Table 10, Formula A-I) [nM] | IC50 ([3]; Table 10, Formula A-I) [nM] | IC50 ([1]; Table 11, Formula B-I) [nM] | IC50 ([2]; Table 11, Formula B-I) [nM] | IC50 ([3]; Table 11, Formula B-I) [nM] | Compound |
| --- | --- | --- | --- | --- | --- | --- |
| 100 to 1000 | > 10000 | 1000 to 10000 |  |  |  | Cc1cc(Nc2nc(N3CC[C@@H](NC(=O)c4ccccc4)C3)cnc2C(N)=O)sn1 [Example A-50, 5-[(3R)-3-benzamidopyrrolidin-1-yl]-3-[(3-methyl-1,2-thiazol-5-yl)amino]pyrazine-2-carboxamide] |
| ≤ 100 | 100 to 1000 | < 100 |  |  |  | Cc1cc(Nc2nc(N3CCC[C@@H](N4CCN(c5cccc(Cl)c5)C4=O)C3)cnc2C(N)=O)sn1 [Example A-52, 5-[(3R)-3-[3-(3-chlorophenyl)-2-oxoimidazolidin-1-yl]piperidin-1-yl]-3-[(3-methyl-1,2-thiazol-5-yl)amino]pyrazine-2-carboxamide] |
| ≤ 100 | 1000 to 10000 | < 100 |  |  |  | CS(=O)(=O)c1ccc(Nc2nc(N3CCC[C@@H](N4CCN(c5cccc(Cl)c5)C4=O)C3)cnc2C(N)=O)cc1 [Example A-53, 5-[(3R)-3-[3-(3-chlorophenyl)-2-oxoimidazolidin-1-yl]piperidin-1-yl]-3-[(4-methanesulfonylphenyl)amino]pyrazine-2-carboxamide] |
| ≤ 100 | 1000 to 10000 | 100 to 1000 |  |  |  | Cc1cc(Nc2nc(N3CCC[C@H](NC(=O)c4ccc(N(C)C)cc4)[C@@H]3C)cnc2C(N)=O)sn1 [Example A-54, 5-[(2S,3S)-3-[4-(dimethylamino)benzamido]-2-methylpiperidin-1-yl]-3-[(3-methyl-1,2-thiazol-5-yl)amino]pyrazine-2-carboxamide] |
| ≤ 100 | 1000 to 10000 | 1000 to 10000 |  |  |  | Cc1cc(Nc2nc(N3CCC[C@H](NC(=O)N(C)C)[C@@H]3C)cnc2C(N)=O)sn1 [Example A-58, 5-[(2S,3S)-3-[(dimethylcarbamoyl)amino]-2-methylpiperidin-1-yl]-3-[(3-methyl-1,2-thiazol-5-yl)amino]pyrazine-2-carboxamide] |
| ≤ 100 | 1000 to 10000 | 100 to 1000 |  |  |  | C[C@@H]1[C@H](NC(=O)N(C)C)CCCN1c1cnc(C(N)=O)c(Nc2ccc3ncccc3c2)n1 [Example A-59, 5-[(2R,3R)-3-[(dimethylcarbamoyl)amino]-2-methylpiperidin-1-yl]-3-[(quinolin-6-yl)amino]pyrazine-2-carboxamide] |
| ≤ 100 | > 10000 | > 10000 |  |  |  | Cc1cc(Nc2cc(N3CCC[C@@H](NC(=O)c4ccc(N(C)C)cc4)C3)cnc2C(N)=O)sn1 [Example A-62, 5-[(3R)-3-[4-(dimethylamino)benzamido]piperidin-1-yl]-3-[(3-methyl-1,2-thiazol-5-yl)amino]pyridine-2-carboxamide] |
| ≤ 100 | < 100 | 100 to 1000 |  |  |  | Cc1cc(Nc2nc(N3CCC(CNC(=O)N(C)C)CC3)cnc2C(N)=O)sn1 [Example A-75, 5-(4-{[(dimethylcarbamoyl)amino]methyl}piperidin-1-yl)-3-[(3-methyl-1,2-thiazol-5-yl)amino]pyrazine-2-carboxamide] |
| ≤ 100 | < 100 | 100 to 1000 |  |  |  | Cc1cc(Nc2nc(N3CCC(CNC(=O)c4ccccc4)CC3)cnc2C(N)=O)sn1 [Example A-76, 3-[(3-methyl-1,2-thiazol-5-yl)amino]-5-{4-[(phenylformamido)methyl]piperidin-1-yl}pyrazine-2-carboxamide] |
| ≤ 100 | < 100 | 100 to 1000 |  |  |  | Cc1cc(Nc2nc(N3CCC(CNC(=O)c4ccc(N(C)C)cc4)CC3)cnc2C(N)=O)sn1 [Example A-77, 5-[4-({[4-(dimethylamino)phenyl]formamido}methyl)piperidin-1-yl]-3-[(3-methyl-1,2-thiazol-5-yl)amino]pyrazine-2-carboxamide] |
| ≤ 100 | < 100 | < 100 |  |  |  | C=CC(=O)N[C@@H]1CCCN(c2cnc(C(N)=O)c(Nc3ccc(C4CCN(C5CCCC5)CC4)cc3)n2)C1 [Example A-84, (R)-5-(3-acrylamidopiperidin-1-yl)-3-(4-(1-cyclopentylpiperidin-4-yl)phenylamino)pyrazine-2-carboxamide] |
| ≤ 100 | < 100 | < 100 |  |  |  | C=CC(=O)N[C@@H]1CCCN(c2cnc(C(N)=O)c(Nc3ccc(C4CCN(C5CCCC5)CC4)cc3)n2)[C@@H]1C [Example A-85, 5-((2R,3R)-3-acrylamido-2-methylpiperidin-1-yl)-3-(4-(1-cyclopentylpiperidin-4-yl)phenylamino)pyrazine-2-carboxamide] |
